From publication PMC11549390, “Activity, structure, and diversity of Type II proline-rich antimicrobial peptides from insects” (EMBO Reports, 2024) come the findings set out here.

Experiment [1] relates to E. coli strain BL21 cells transformed with the pRXG(UGA) plasmid. The experiment can be described thus: Stop codon readthrough assay (RFP-UGA-GFP reporter, drop-diffusion). It is filed as cell-based, Escherichia coli. The note with it: subinhibitory concentrations, M9 agar, 2 µL of 2 mM peptide, 37 °C 16 h, three independent experiments. As for the experimental part:
Figure 4 Newly identified PrAMPs cause stop codon readthrough in bacterial cells. Top: In-frame fused genes encoding the reporter proteins RFP and GFP in the pRXG plasmid (Monk et al, [2017]) are separated by an UGA stop codon. […] Api and the modified Api137 (Berthold et al, [2013]) were spotted for comparison. […] Shown are representative plates from three independent experiments.
Stop codon readthrough activity of PrAMPs was determined as previously described (Mangano et al, [2023]). Briefly, E. coli strain BL21 cells transformed with the pRXG(UGA) plasmid (Monk et al, [2017]) were plated as described above for the drop-diffusion test, except that the bacterial lawn was formed on M9 medium/agar plates supplemented with 50 µg/ml of Kan and 0.2% glucose. Peptide solutions (2 µL of 2 mM stocks) were applied. The plates were incubated at 37 °C for 16 h and imaged in Cy2 (GFP) or Cy3 (RFP) channels using the BioRad ChemiDoc Touch imaging system. The images were processed using Image Lab software (BioRad).

A further experiment deals with K. pneumoniae AR-0112. Format: cell-based, Klebsiella pneumoniae. The protocol: (§1) The minimal inhibitory concentration (MIC) test for the E. coli laboratory strain BL21 and the K. pneumoniae multi-drug-resistant clinical strain AR-0112 (CDC and FDA Antibiotic Resistance Isolate Bank) was performed using the broth microdilution method, adapted from a previously described procedure (Wiegand et al, [2008]). The MIC tests were conducted either in 33% Tryptic Soy Broth (TSB) (Berthold et al, [2013]), or in RPMI/Serum (prepared by combining Roswell Park Memorial Institute medium 1640, Mueller Hinton Broth, and fetal bovine serum in the proportion 100:5:20, v/v/v) (Belanger et al, [2020]).

The next experiment concerns E. coli BL21. It is filed as cell-based, Escherichia coli. As for the experimental part: as §1

Where two headings read alike, the source gives them in different places. No end group written: not given here. Bounds are passed on as bounds.

On to `O=C(N[C@H](CO)[C@H](O)c1ccc([N+](=O)[O-])cc1)C(Cl)Cl` [chloramphenicol], for which the “Induction of stop codon readthrough (GFP halo)” value in experiment [1] is reported as “does not induce stop codon readthrough”.

The term MIC denotes the lowest concentration found to suppress growth. Read a low MIC as inhibition by little substance. AHKPVYVPPPRPPHPRL [Nme2]: in the experiment on K. pneumoniae AR-0112 (AR-0112), the MIC turned out to be 2 µM.

For ALNRPVYVPPPRPPHPRL [Mge1], the MIC in the experiment on K. pneumoniae AR-0112 (AR-0112) came out at 1 µM.

For GKPNKPRPAPIKPRPPHPRL [Pdi2], the MIC against E. coli BL21 (BL21) was found to be 0.25 µM.

Turning to GNRPNIPTYIPRPRPPHPRL [Fva1], the MIC against K. pneumoniae AR-0112 (K. pneumoniae AR-0112 (multi-drug-resistant clinical strain), 33% TSB, broth microdilution, performed in triplicate) was found to be 1 µM; against K. pneumoniae AR-0112 (K. pneumoniae AR-0112, RPMI/Serum (RPMI 1640:Mueller Hinton Broth:fetal bovine serum 100:5:20), broth microdilution, performed in triplicate), 16 µM; against E. coli BL21 (E. coli BL21, 33% TSB, broth microdilution, performed in triplicate), 0.125 µM; in the experiment on E. coli BL21 (E. coli BL21, RPMI/Serum (RPMI 1640:Mueller Hinton Broth:fetal bovine serum 100:5:20), broth microdilution, performed in triplicate), 0.25 µM.

GSKPVRPPPPIRPRPPHPRL [Btr1] showed an MIC with E. coli BL21 (BL21) of 0.25 µM.

In the case of GSRLMYLPPPPCSPYLHF [Baf1], in the experiment with E. coli BL21 (BL21), the MIC is >64 µM.

In the experiment with K. pneumoniae AR-0112 (AR-0112), NRPTYVPPPRPPHPRL [Ssp1] came in with an MIC of 2 µM.

Consider SNKPRPQQVPPRPPHPRL [Vma1], for which, in the experiment with K. pneumoniae AR-0112 (AR-0112), the MIC was 2 µM.

In the case of SNRPVYIPPPRSPHPRL [Bvo1], in the experiment on E. coli BL21 (BL21), the MIC was >64 µM.
